Test results as given in patent publication US20220047587A1, “SYNERGISTIC COMPOSITIONS COMPRISING R-2-(SUBSTITUTED-SULFONYL)-HEXAHYDRO-PYRROLO[1,2-A]PYRAZIN-6(2H)-ONES AND S-2-(SUBSTITUTED-SULFONYL)-HEXAHYDRO-PYRROLO[1,2-A]PYRAZIN-6(2H)-ONES IN A NON-RACEMIC RATIO” (Metys Pharmaceuticals AG, priority 2018, published 2022).

Tests used:
paclitaxel-treated rats [1] = assay: Paclitaxel-induced peripheral sensory neuropathy model, hyperalgesia (paw pressure) after i.v. administration; assay type: in vivo, rat
Source text: Results are expressed as the minimum dose (via the indicated route) at which a statistically-significant difference is observed when compared to time-matched injured rats receiving a vehicle administration by the same route. An analysis of variance, ANOVA, followed by Fisher's protected least significant difference procedure for post hoc comparison, was used to verify significance between two means of hyperalgesic behavioral results from the Randall & Selitto apparatus paw pressure test (“anti-hyperalgesia”) or from the Von Frey test (“mechanical allodynia”) or from the Cold Plate test (“cold allodynia”). P values 0.05 were considered significant. This definition applies to any doses specified herein as inhibiting “in a statistically significant manner”.
Paw mechanical sensitivity was determined using a Randall & Selitto apparatus (Randall and Selitto, 1957) exerting a force that increases at constant rate (32 g/s). The stimulus causing paw withdrawal was evaluated before and at different times after treatment. Results represent the mean of mechanical thresholds for paw withdrawal expressed as grams. To avoid possible damage to the rat paw the maximum applied force was set at 240 g. In the single administration protocol, paw pressure tests were performed before (pre-dose) and at regular intervals after treatment.
(§1) Paclitaxel (2 mg/kg i.p.) was administered on days 1, 3, 5 and 8. Test compounds were dissolved in saline and administered intravenously at the dose of 1 mg/kg to adult male Sprague-Dawley rats (Charles River, Italy, 220-250 g weight). Data were obtained at 0-75 minutes after injection and are expressed as the mean±s.e.m. of six animals. *P<0.05 and **<0.01 vs vehicle+paclitaxel treated rats; °P<0.05 and ^°°P<0.01 vs. NT24336 (R) treated group. […] *P<0.05 and **<0.01 vss vehicle+paclitaxel treated rats.

paclitaxel-treated rats [2] = assay: Paclitaxel-induced mechanical allodynia (von Frey test) after i.v. administration; assay type: in vivo, rat; conditions: single acute administration 1 mg/kg i.v., adult male Sprague Dawley rats, 0-75 min after injection (FIG. 1)
Source text: Each animal was placed in a chamber with a mesh metal floor covered by a plastic dome that enabled the animal to walk freely, but not to jump. The mechanical stimulus was then delivered in the mid-plantar skin of left hind paw using an electronic von Frey apparatus (37400 Dynamic Plantar Aesthesiometer, Ugo Basile, Comerio, Varese, Italy). The cut-off was set at 50 g, while the increasing force rate (ramp duration) was set at 20 s. In the single administration protocol, pain threshold measurements have been performed before (pre-dose) and at regular intervals after treatment. In the repeated treatment protocol, the pre-test value was measured 13 h after the last administration; afterward the animals received a new administration and measures were performed at the described times. Results are expressed in […] and represent the mean±S.E.M. of mechanical thresholds.
as §1

| SMILES | Lowest dose at which paclitaxel-induced hyperalgesia is inhibited in a statistically significant manner (P < 0.05) (paclitaxel-treated rats [1]; 15 min after administration) | Lowest dose at which paclitaxel-induced hyperalgesia is inhibited in a statistically significant manner (P < 0.05) (paclitaxel-treated rats [1]; 30 min after administration) | Lowest dose at which paclitaxel-induced hyperalgesia is inhibited in a statistically significant manner (P < 0.05) (paclitaxel-treated rats [1]; 45 min after administration) | Effect on paclitaxel-induced mechanical allodynia (von Frey test) (paclitaxel-treated rats [2]) | Effect on paclitaxel-induced mechanical allodynia (von Frey test) (paclitaxel-treated rats [2]; 1 mg/kg) |
| --- | --- | --- | --- | --- | --- |
| O=C1CCC2CN(S(=O)(=O)c3ccccc3F)CCN12 (stereo not drawn) [NT-24781, 2-(2-fluorobenzenesulfonyl)hexahydropyrrolo[1,2-a]pyrazin-6-one] | >3 mg/kg | >3 mg/kg | >3 mg/kg | almost inactive |  |
| O=C1CCC2CN(S(=O)(=O)c3ccccc3F)CCN12 (racemic) [R:S mixture 3:1, 2-(2-fluorobenzenesulfonyl)hexahydropyrrolo[1,2-a]pyrazin-6-one] |  |  |  |  | the most active one |
| O=C1CCC2CN(S(=O)(=O)c3ccccc3F)CCN12 (racemic) [R:S mixture 1:1, 2-(2-fluorobenzenesulfonyl)hexahydropyrrolo[1,2-a]pyrazin-6-one] |  |  |  |  | marginally effective |
